# Patent US20080319191A1, “Crystalline form IV of linezolid” (Teva Pharmaceutical Industries Ltd., priority 2005, published 2008)
# Tests used:
# Format in all cases: physicochemical
# [1] = Long term stability of linezolid Form IV at room temperature and accelerated conditions (40° C. and 55° C.)
# Method: The long term stability of linezolid Form IV was tested by storing it at room temperature and under accelerated conditions at 40° C. and 55° C.
# [2] = Chemical stability of Form IV obtained by heating Form II at 170° C.; conditions: Form IV obtained at 170° C. (one hour)
# Method: Crystalline linezolid Form IV may be prepared by heating crystalline linezolid Form II to a temperature higher than 85° C. Crystalline linezolid Form IV is obtained by keeping crystalline linezolid Form II at a temperature of between 85-175° C. As an example, crystalline linezolid Form II was kept at a temperature of 170° C. during one hour. The polymorphic form of crystalline linezolid Form II was changed to crystalline linezolid Form IV.
# [3] = Stability of linezolid Form IV stored 10 days at 0-100% relative humidity at room temperature
# Method: The stability of linezolid Form IV was tested by storing it for 10 days at a relative humidity of between 0 and 100% at room temperature.
smiles,measurement,setting,value
CC(=O)NC[C@H]1CN(c2ccc(N3CCOCC3)c(F)c2)C(=O)O1 [linezolid Form IV],Crystal form after storage (Results),"[1]; 25° C., 1 M",Form IV
same,Crystal form after storage (Results),"[1]; 25° C., 2 M",Form IV
same,Crystal form after storage (Results),"[1]; 25° C., 3 M",Form IV
same,Time stable on storage,"[1]; 25° C., 40° C., and 55° C.",≥ 3 months
same,Crystal form after storage (Results),"[1]; 25° C., As is",Form IV
same,Crystal form after storage (Results),"[1]; 40° C., 1 M",Form IV
same,Crystal form after storage (Results),"[1]; 40° C., 2 M",Form IV
same,Crystal form after storage (Results),"[1]; 40° C., 3 M",Form IV
same,Crystal form after storage (Results),"[1]; 55° C., 1 M",Form IV
same,Crystal form after storage (Results),"[1]; 55° C., 2 M",Form IV
same,Crystal form after storage (Results),"[1]; 55° C., 3 M",Form IV
same,Chemical stability,[2],chemically stable
same,Solvent content,[3]; As is (before storage),0.1%
same,Hygroscopicity,[3]; between 0-100% RH,non-hygroscopic
same,Stability,[3]; between 0-100% RH,stable
same,Solvent content,"[3]; relative humidity 0%, 10 days, room temperature",0.1%
same,Solvent content,"[3]; relative humidity 20%, 10 days, room temperature",0.1%
same,Solvent content,"[3]; relative humidity 40%, 10 days, room temperature",0.1%
same,Solvent content,"[3]; relative humidity 60%, 10 days, room temperature",0.1%
same,Solvent content,"[3]; relative humidity 80%, 10 days, room temperature",0.1%
same,Solvent content,"[3]; relative humidity 100%, 10 days, room temperature",0.1%
same,Time stable against transformation into Form II upon storage,"[3]; relative humidity of about 0% to about 100%, room temperature",at least 10 days
